Article PMC5966835 (Antiviral research, 2018)
Where two headings read alike, the source gives them in different places.

Assays:
CHIKV nsP1 [1] = target: T1, CHIKV nsP1 (Chikungunya virus, UniProt Q8JUX6); experiment: Fluorescence polarization GTP-competition assay; type: binding; conditions: for more active against CHIKV nsP1 than Dengue NS5 (selectivity): Ki CHIKV nsP1 vs DENV NS5
T1 sequence (Q8JUX6 1-535 limits assumed): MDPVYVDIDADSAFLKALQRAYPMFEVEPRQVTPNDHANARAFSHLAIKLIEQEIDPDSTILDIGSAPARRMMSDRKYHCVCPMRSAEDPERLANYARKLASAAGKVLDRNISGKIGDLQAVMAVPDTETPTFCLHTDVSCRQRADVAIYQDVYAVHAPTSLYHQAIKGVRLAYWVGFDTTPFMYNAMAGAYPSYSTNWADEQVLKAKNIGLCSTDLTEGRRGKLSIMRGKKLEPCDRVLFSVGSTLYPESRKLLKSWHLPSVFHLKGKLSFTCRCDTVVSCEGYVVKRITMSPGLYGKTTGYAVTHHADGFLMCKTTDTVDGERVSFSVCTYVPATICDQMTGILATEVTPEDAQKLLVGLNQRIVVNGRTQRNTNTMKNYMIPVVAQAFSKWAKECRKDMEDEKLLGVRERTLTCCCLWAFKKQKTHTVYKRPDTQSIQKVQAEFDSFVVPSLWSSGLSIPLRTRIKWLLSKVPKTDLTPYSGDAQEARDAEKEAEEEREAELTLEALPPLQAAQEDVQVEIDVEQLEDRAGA

Sindbis virus = experiment: Live virus testing, Sindbis virus in BHK cells, plaque assay; type: cell-based, Sindbis virus (TE/3'2J); conditions: for Sindbis virus replication in vitro: BHK cells, MOI 0.1, 48 hours
CHIKV (strain OPY1) = experiment: Live virus testing, CHIKV in BHK cells, plaque assay; type: cell-based, Chikungunya virus; conditions: for CHIKV replication in BHK cells: MOI 0.1, 48 hours; for EC50: Chikungunya virus, BHK, read-out: BHK EC50
CHIKV nsP1 [2] = target: T1, CHIKV nsP1; experiment: Guanylation inhibition; type: biochemical; conditions: 200-3.1 µM, 1 hour at 37°C, n=3
Cytotoxicity assay [3] = experiment: Cytotoxicity assay
DENV NS5 = DENV NS5 (Dengue virus type 2, UniProt P29990); experiment: GTP-binding inhibition of flavivirus NS5 capping enzyme
Cytotoxicity assay [4] = conditions: human
CHIKV = experiment: Live virus testing, CHIKV in Huh 7 cells, plaque assay; type: cell-based; conditions: Chikungunya virus, read-out: Huh 7 EC50
[5] = tested on: human adenosine-triphosphategated P2X7 receptor; conditions: ref Fischer et al., 2014; cited from earlier work
[6] = cited from earlier work

Sequence of DENV NS5 (P29990 2492-2758 limits assumed): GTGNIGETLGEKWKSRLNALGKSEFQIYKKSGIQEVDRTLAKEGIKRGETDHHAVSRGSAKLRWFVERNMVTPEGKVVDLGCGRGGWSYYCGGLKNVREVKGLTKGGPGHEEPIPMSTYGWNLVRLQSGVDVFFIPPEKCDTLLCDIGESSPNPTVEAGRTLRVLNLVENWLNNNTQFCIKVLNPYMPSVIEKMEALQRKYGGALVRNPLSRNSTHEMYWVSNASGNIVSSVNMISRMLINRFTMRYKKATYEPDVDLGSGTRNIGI

## CCCCCc1c2c(cc(O)c1C(=O)O)OC(=O)c1c(cc(OC)cc1C(=O)CCCC)O2 [lobaric acid]
CHIKV nsP1 [1]
  Ki: 7 ± 0.6 µM
  more active against CHIKV nsP1 than Dengue NS5 (selectivity): ~5 X
Sindbis virus; Sindbis virus, BHK, 48 h, read-out: EC50 Sindbis virus growth
  EC50: 5.9 µM
CHIKV (strain OPY1); BHK and Huh 7 cells, 24 and 48 hours
  average selectivity index: ~7
CHIKV (strain OPY1)
  CHIKV replication in BHK cells: inhibited viral replication efficiently after 48 hours
CHIKV (strain OPY1); 24 h
  EC50: 9.9 ± 2.6 µM
CHIKV (strain OPY1); 48 h
  EC50: 8.9 ± 1.3 µM
CHIKV nsP1 [2]
  inhibition of CHIKV nsP1 guanylation activity: inhibited CHIKV nsP1 guanlylation activity in a dose dependent manner
Cytotoxicity assay [3]; hamster
  CC50 at 24 h: 76.3 ± 2.1 µM
  CC50 at 48 h: 53.8 ± 8.1 µM
Cytotoxicity assay [3]; hamster and human
  CC50: 50 to 76 µM
DENV NS5
  Ki: 43.8 ± 7 µM
Cytotoxicity assay [4]
  CC50 at 24 h: 60.5 ± 3.8 µM
  CC50 at 48 h: 50 ± 1.3 µM
CHIKV; Huh-7, 24 h
  EC50: 16.3 ± 1.2 µM
CHIKV; Huh-7, 48 h
  EC50: 5.3 ± 0.4 µM

## CC(C)=CCCC1(C)C=Cc2c(O)c3c(c(CC=C(C)C)c2O1)OC12C(=CCCC1C(C)(C)O[C@@]2(C/C=C(\C)C(=O)O)C(=O)O)C3=O (some centres unmarked) [garcinolic acid]
CHIKV nsP1 [1]
  Ki: 14.5 ± 4.9 µM
Sindbis virus
  Sindbis virus replication in vitro: did not markedly decrease Sindbis virus replication in vitro
CHIKV (strain OPY1)
  CHIKV replication in BHK cells: Neither pyrantel pamoate nor garcinolic acid were able to reduce CHIKV replication in BHK cells
CHIKV nsP1 [2]
  inhibition of CHIKV nsP1 guanylation activity: inhibited CHIKV nsP1 guanlylation activity in a dose dependent manner
[5]
  Ca(2+) uptake of P2X7 receptor: increase Ca(2+) uptake of the human adenosine-triphosphategated P2X7 receptor
DENV NS5
  Ki: 6.9 ± 0.4 µM

## CCc1oc2ccccc2c1C(=O)c1cc(Br)c(O)c(Br)c1 [benzbromarone, Benzbromarone, reference compound]
CHIKV nsP1 [1]
  Ki: 13 ± 0.9 µM
CHIKV nsP1 [2]
  inhibition of CHIKV nsP1 guanylation activity: only showed inhibitory activity at high µM concentrations
DENV NS5
  Ki: 9 ± 0.7 µM

## CN1CCCN=C1/C=C/c1cccs1 [pyrantel pamoate, reference compound]
CHIKV nsP1 [1]
  Ki: 5 ± 0.3 µM
  more active against CHIKV nsP1 than Dengue NS5 (selectivity): ~5 X
Sindbis virus
  Sindbis virus replication in vitro: did not markedly decrease Sindbis virus replication in vitro
[6]
  absorption in the human intestine: poorly absorbed in the human intestine
CHIKV (strain OPY1)
  CHIKV replication in BHK cells: Neither pyrantel pamoate nor garcinolic acid were able to reduce CHIKV replication in BHK cells
CHIKV nsP1 [2]
  inhibition of CHIKV nsP1 guanylation activity: inhibited CHIKV nsP1 guanlylation activity in a dose dependent manner
DENV NS5
  Ki: 38 ± 1.5 µM
